Results on 14 compounds are retold here after patent US20230081720A1, “MCL-1 INHIBITOR ANTIBODY-DRUG CONJUGATES AND METHODS OF USE” (NOVARTIS AG, priority 2019, published 2023).

One experiment addresses Mcl-1 protein (Homo sapiens, UniProt Q07820). In words: Inhibition of Mcl-1 by fluorescence polarization (FP). The format is binding. The note with it: fluorescein-labelled ligand 1 nM, Mcl-1 protein 5 nM. (Polarisation of emitted light reports the rotation of a fluorescent probe.)
For experiment [1], the system named is NCI-H929 multiple myeloma cell line. The experiment in a line: In vitro cytotoxicity, Microculture Tetrazolium Assay (MTT). The format is cell-based. The conditions noted are these: NCI-H929 cells, 48 hours.
Procedure: Cytotoxicity studies were carried out on the NCI-H929 multiple myeloma cell line. The cells were distributed onto microplates and exposed to the test compounds for 48 hours.
Another experiment relates to MONO-MAC-1. The format is cell-based. The note with it: CD74 ADC with the named linker-payload, 5 days. Here is the method:
(§1) Cell lines were cultured in media that is optimal for their growth at 5% CO2, 37° C. in a tissue culture incubator. Prior to seeding for the proliferation assay, the cells were split at least 2 days before the assay to ensure optimal growth density. […] Cell viability and cell density were determined using a cell counter (Vi-Cell XR Cell Viability Analyzer, Beckman Coulter). […] Cells were seeded at a density of 1,000 cells per well in 45 μL of standard growth media. Plates were incubated at 5% CO2, 37° C. overnight in a tissue culture incubator. […] Each drug concentration was tested in quadruplets. […] Plates were incubated at room temperature for 10 minutes to stabilize luminescent signals prior to reading using a luminescence reader (EnVision Multilabel Plate Reader, PerkinElmer). To evaluate the effect of the drug treatments, luminescent counts from wells containing untreated cells (100% viability) were used to normalize treated samples.

The next experiment concerns EOL-1. The format is cell-based. The conditions noted are these: CD74 ADC with the named linker-payload, 5 days; for IC50: read-out: EOL-1 IC50. On the procedure: as §1
The test system of the next experiment is NOMO-1. The class given is cell-based. The note with it: CD74 ADC with the named linker-payload, 5 days; for IC50: read-out: NOMO-1 IC50. On the procedure: as §1

Chain of Mcl-1 protein (Q07820 whole entry): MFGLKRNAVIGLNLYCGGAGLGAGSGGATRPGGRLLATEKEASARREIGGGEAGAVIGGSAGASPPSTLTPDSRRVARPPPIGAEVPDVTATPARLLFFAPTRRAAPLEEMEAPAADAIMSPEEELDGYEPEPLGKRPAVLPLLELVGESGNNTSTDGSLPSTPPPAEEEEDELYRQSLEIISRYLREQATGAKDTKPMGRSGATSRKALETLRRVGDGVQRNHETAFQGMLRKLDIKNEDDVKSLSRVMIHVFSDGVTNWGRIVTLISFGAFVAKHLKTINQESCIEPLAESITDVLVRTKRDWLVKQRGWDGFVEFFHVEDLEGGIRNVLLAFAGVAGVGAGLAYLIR
Procedure for Mcl-1 protein: The relative binding potency of each compound was determined via Fluorescence Polarization (FP).
An 11-point serial dilution of each compound was prepared in DMSO and 2 PI transferred into flat bottomed, low binding, 384-well plate (final DMSO concentration 5%). 38 μl of buffer (10 mM 4-(2-hydroxyethyl)-1-piperazineethanesulfonic acid [HEPES], 150 mM NaCl, 0.05% Tween 20, pH 7.4), containing the fluorescein-labelled ligand (final concentration 1 nM) and Mcl-1 protein (final concentration 5 nM) was then added.

One may read the IC50 as the concentration that inhibits the measured activity by half. In the case of `Cc1c(-c2c(-c3ccc(F)cc3)sc3ncnc(OC(Cc4ccccc4OCc4ccnc(-c5ccc(CP(=O)(O)O)cc5)n4)C(=O)O)c23)ccc(OCCN2CCNCC2)c1Cl` [C4, (2R)-2-[(5Sa)-5-[3-chloro-2-methyl-4-(2-piperazin-1-ylethoxy)phenyl]-6-(4-fluorophenyl)thieno[2,3-d]pyrimidin-4-yl]oxy-3-[2-[[2-[4-(phosphonomethyl)phenyl]pyrimidin-4-yl]methoxy]phenyl]propanoic acid], the IC50 against Mcl-1 protein came out at 2.6 nM; in experiment [1] (Homo sapiens) it was 3210 nM.

Turning to `Cc1c(-c2c(-c3ccc(F)cc3)sc3ncnc(O[C@H](Cc4ccccc4OCc4ccnc(-c5cccc(S(=O)(=O)O)c5)n4)C(=O)O)c23)ccc(OCCN2CCN(C)CC2)c1Cl` [C9, (2R)-2-{[(5Sa)-5-{3-chloro-2-methyl-4-[2-(4-methylpiperazin-1-yl)ethoxy]phenyl}-6-(4-fluorophenyl)thieno[2,3-d]pyrimidin-4-yl]oxy}-3-(2-{[2-(3-sulfophenyl)pyrimidin-4-yl]methoxy}phenyl)propanoic acid], the IC50 against Mcl-1 protein was determined as 2.5 nM; in experiment [1] (Homo sapiens), 2270 nM.

With `COc1c(O)cccc1-c1nccc(COc2ccccc2C[C@@H](Oc2ncnc3sc(-c4ccc(F)cc4)c(-c4ccc(OCCN5CCN(C)CC5)c(Cl)c4C)c23)C(=O)O)n1` [C14, (2R)-2-{[(5Sa)-5-{3-chloro-2-methyl-4-[2-(4-methylpiperazin-1-yl)ethoxy]phenyl}-6-(4-fluorophenyl)thieno[2,3-d]pyrimidin-4-yl]oxy}-3-(2-{[2-(3-hydroxy-2-methoxyphenyl)pyrimidin-4-yl]methoxy}phenyl)propanoic Acid], the half-maximal inhibitory concentration (IC50) against Mcl-1 protein is 0.84 nM; in experiment [1] (Homo sapiens) it was 2.61 nM.

In the case of `COc1ccccc1-c1nccc(COc2ccccc2C[C@@H](Oc2ncnc3sc(-c4ccc(F)c(O)c4)c(-c4ccc(OCCN5CC[N+](C)(CCCS(=O)(=O)[O-])CC5)c(Cl)c4C)c23)C(=O)O)n1` [C2, (2R)-2-[(5Sa)-5-[3-chloro-2-methyl-4-[2-[4-methyl-4-(3-sulfopropyl)piperazin-4-ium-1-yl]ethoxy]phenyl]-6-(4-fluoro-3-hydroxy-phenyl)thieno[2,3-d]pyrimidin-4-yl]oxy-3-[2-[[2-(2-methoxyphenyl)pyrimidin-4-yl]methoxy]phenyl]propanoic acid], the figures for the IC50 (at Mcl-1 protein; in experiment [1] (Homo sapiens)) were 2.6 nM and 8510 nM, respectively.

As for `COc1ccccc1-c1nccc(COc2ccccc2C[C@@H](Oc2ncnc3sc(-c4ccc(F)c(OCC(F)(F)F)c4)c(-c4ccc(OCCN5CCN(C)CC5)c(Cl)c4C)c23)C(=O)O)n1` [C10, (2R)-2-[(5Sa)-5-[3-chloro-2-methyl-4-[2-(4-methylpiperazin-1-yl)ethoxy]phenyl]-6-[4-fluoro-3-(2,2,2-trifluoroethoxy)phenyl]thieno[2,3-d]pyrimidin-4-yl]oxy-3-[2-[[2-(2-methoxyphenyl)pyrimidin-4-yl]methoxy]phenyl]propanoic Acid], the 50% inhibitory concentration (IC50) amounted to 3.4 nM on Mcl-1 protein and 13.5 nM in experiment [1] (Homo sapiens).

On to `COc1ccccc1-c1nccc(COc2ccccc2C[C@@H](Oc2ncnc3sc(-c4ccc(F)cc4)c(-c4ccc(OCCN5CCNCC5)c(Cl)c4C)c23)C(=O)O)n1` [C3, (2R)-2-[(5Sa)-5-[3-chloro-2-methyl-4-(2-piperazin-1-ylethoxy)phenyl]-6-(4-fluorophenyl)thieno[2,3-d]pyrimidin-4-yl]oxy-3-[2-[[2-(2-methoxyphenyl)pyrimidin-4-yl]methoxy]phenyl]propanoic acid], for which the IC50 against Mcl-1 protein worked out at 0.948 nM; in experiment [1] (Homo sapiens), 42 nM.

In the case of `Cc1c(-c2c(-c3ccc(F)cc3)sc3ncnc(O[C@H](Cc4ccccc4OCc4ccnc(-c5cccc(OS(=O)(=O)O)c5)n4)C(=O)O)c23)ccc(OCCN2CCN(C)CC2)c1Cl` [C8, (2R)-2-[(5Sa)-5-[3-chloro-2-methyl-4-[2-(4-methylpiperazin-1-yl)ethoxy]phenyl]-6-(4-fluorophenyl)thieno[2,3-d]pyrimidin-4-yl]oxy-3-[2-[[2-(3-sulfooxyphenyl)pyrimidin-4-yl]methoxy]phenyl]propanoic acid], the IC50 against Mcl-1 protein was 3 nM; in experiment [1] (Homo sapiens), 574 nM.

As to `Cc1c(-c2c(-c3ccc(F)cc3)sc3ncnc(O[C@H](Cc4ccccc4OCc4ccnn4CC(F)(F)F)C(=O)O)c23)ccc(OCCN2CCN(C)CC2)c1Cl` (atropisomer, axis not shown) [C12, (2R)-2-{[(5Sa)-5-{3-chloro-2-methyl-4-[2-(4-methylpiperazin-1-yl)ethoxy]phenyl}-6-(4-fluorophenyl)thieno[2,3-d]pyrimidin-4-yl]oxy}-3-(2-{[1-(2,2,2-trifluoroethyl)-1H-pyrazol-5-yl]methoxy}phenyl)propanoic Acid], the 50% inhibitory concentration (IC50) against Mcl-1 protein worked out at 5.9 nM.

Take “(2R)-2-{[(5Sa)-5-{3-chloro-2-methyl-4-[2-(4-methylpiperazin-1-yl)ethoxy]phenyl}-6-(4-fluorophenyl)thieno[2,3-d]pyrimidin-4-yl]oxy}-3-(2-{[2-(4-hydroxyphenyl)pyrimidin-4-yl]methoxy}phenyl)propanoic Acid [C5]”: the IC50 on Mcl-1 protein was 4.05 nM; in experiment [1] it was 4.08 nM.

Regarding `Cc1c(-c2c(-c3ccc(F)cc3)sc3ncnc(O[C@H](Cc4ccccc4OCc4ccnc(-c5ccccc5CO)n4)C(=O)O)c23)ccc(OCCN2CCN(C)CC2)c1Cl` [C6, (2R)-2-{[(5Sa)-5-{3-chloro-2-methyl-4-[2-(4-methylpiperazin-1-yl)ethoxy]phenyl}-6-(4-fluorophenyl)thieno[2,3-d]pyrimidin-4-yl]oxy}-3-[2-({2-[2-(hydroxymethyl)phenyl]pyrimidin-4-yl}methoxy)phenyl]propanoic acid], at Mcl-1 protein, the IC50 is 1.18 nM.

In the case of `CC#Cc1sc2ncnc(O[C@H](Cc3ccccc3OCc3ccnc(-c4ccccc4OC)n3)C(=O)O)c2c1-c1ccc(OCCN2CCN(C)CC2)c(Cl)c1CC` [C7, (2R)-2-[(5Sa)-5-[3-chloro-2-ethyl-4-[2-(4-methylpiperazin-1-yl)ethoxy]phenyl]-6-prop-1-ynyl-thieno[2,3-d]pyrimidin-4-yl]oxy-3-[2-[[2-(2-methoxyphenyl)pyrimidin-4-yl]methoxy]phenyl]propanoic Acid], the half-inhibitory concentration (IC50) against Mcl-1 protein was found to be 2.6 nM; in experiment [1] (Homo sapiens) it was 1.88 nM.

For `COc1ccccc1-c1nccc(COc2ccccc2C[C@@H](Oc2ncnc3sc(-c4cc(N)c(F)c(F)c4)c(-c4ccc(OCCN5CCN(C)CC5)c(Cl)c4C)c23)C(=O)O)n1` [C13, (2R)-2-{[(5Sa)-6-(3-amino-4,5-difluorophenyl)-5-{3-chloro-2-methyl-4-[2-(4-methylpiperazin-1-yl)ethoxy]phenyl}thieno[2,3-d]pyrimidin-4-yl]oxy}-3-(2-{[2-(2-methoxyphenyl)pyrimidin-4-yl]methoxy}phenyl)propanoic acid], the half-maximal inhibitory concentration (IC50) came to 2.2 nM at Mcl-1 protein and 3.76 nM in experiment [1] (Homo sapiens).

`COCCOCCOCCOCCOCCOCCOCCOCCOCCOCCOCCOCCOCCOCCOCCOCCn1cc(COCc2cc(NC(=O)[C@H](CCCNC(N)=O)NC(=O)[C@@H](NC(=O)CCOCCN3C(=O)C=CC3=O)C(C)C)ccc2C[N+]2(C)CCN(CCOc3ccc(-c4c(-c5ccc(F)cc5)sc5ncnc(O[C@H](Cc6ccccc6OCc6ccnc(-c7ccccc7OC)n6)C(=O)O)c45)c(C)c3Cl)CC2)nn1` [L34-P1]: in the experiment with MONO-MAC-1, half-maximal inhibition (IC50) required 6.28 nM and the “MONO-MAC-1 Amax” value amounted to 104.4. In the experiment on EOL-1, the “EOL-1 Amax” value was 70.92 and the 50% inhibitory concentration (IC50) was 0.736 nM. Also, in the experiment with NOMO-1, the “NOMO-1 Amax” value came out at 66.95 and the concentration for half-maximal inhibition (IC50) amounted to 2.96 nM.

For the compound `COCCOCCOCCOCCOCCOCCOCCOCCOCCOCCOCCOCCC(=O)N(C)Cc1cc(NC(=O)[C@H](CCCNC(N)=O)NC(=O)[C@@H](NC(=O)CCOCCN2C(=O)C=CC2=O)C(C)C)ccc1C[N+]1(C)CCN(CCOc2ccc(-c3c(-c4ccc(F)cc4)sc4ncnc(O[C@H](Cc5ccccc5OCc5ccnc(-c6ccccc6OC)n5)C(=O)O)c34)c(C)c2Cl)CC1` [L32-P1], in the experiment with MONO-MAC-1, the IC50 is 6.72 nM and the “MONO-MAC-1 Amax” value amounted to 97.57. Besides, in the experiment with EOL-1, the “EOL-1 Amax” value is on record as 125 and the IC50 was 0.16 nM. In the experiment on NOMO-1, the “NOMO-1 Amax” value stood at 62.58 and the IC50 was found to be 1.5 nM.
